Laboratory results: PubChem BioAssay AID250 (DTP/NCI, 2004)
Several values for one entry are separate records, joined by “and”; a condition that tells them apart may be missing. Equal entries are not always repeated. Toxic doses and inconclusive results are not listed. Rule for the calls: active = survival T/C of 150% or more; inactive = T/C below 125% in these data.

Tested on: BDF1 mice, L1210 leukemia sc, survival T/C
Experiment: NCI In Vivo Anticancer Drug Screen. Data for tumor model L1210 Leukemia (subcutaneous) in B6D2F1 (BDF1) mice
Settings: endpoint: median survival time, higher = longer survival
Procedure, shortened: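 Tumors were transplanted into mice, the animals were treated with compound, survival or tumor size was then measured, and treated values were divided by vehicle-control values.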

[1] = dose: 3.0 mg/kg/injection, schedule: Q01DX Z (sc), vehicle: methylcellulose (MC)
[2] = dose: 5.0 mg/kg/injection, schedule: Q01DX Z (sc), vehicle: methylcellulose (MC)
[3] = dose: 23.0 mg/kg/injection, schedule: Q01DX Z (sc), vehicle: methylcellulose (MC)
[4] = dose: 64.8 mg/kg/injection, schedule: Q01DX Z (sc), vehicle: methylcellulose (MC)
[5] = dose: 108.0 mg/kg/injection, schedule: Q01DX Z (sc), vehicle: methylcellulose (MC)
[6] = dose: 180.0 mg/kg/injection, schedule: Q01DX Z (sc), vehicle: methylcellulose (MC)
[7] = dose: 300.0 mg/kg/injection, schedule: Q01DX Z (sc), vehicle: methylcellulose (MC)
[8] = dose: 14.0 mg/kg/injection, schedule: Q01DX Z (sc), vehicle: methylcellulose (MC)
[9] = dose: 39.0 mg/kg/injection, schedule: Q01DX Z (sc), vehicle: methylcellulose (MC)
[10] = dose: 65.0 mg/kg/injection, schedule: Q01DX Z (sc), vehicle: methylcellulose (MC)
[11] = dose: 23.0 mg/kg/injection, schedule: Q01DX Z (sc), vehicle: water
[12] = dose: 500.0 mg/kg/injection, schedule: Q01DX Z (sc), vehicle: methylcellulose (MC)

Measured: T/C

COc1ccc2cc1Oc1ccc(cc1)C[C@H]1c3cc(c(OC)cc3CCN1C)Oc1c(OC)c(OC)cc3c1[C@H](C2)N(C)CC3
inactive: dose: 37.5 mg/kg/injection, schedule: Q01DX009 (sc), vehicle: methylcellulose (MC) 90 % of control | dose: 37.5 mg/kg/injection, schedule: Q01DX009 (sc), vehicle: other 90 % of control | dose: 39.0 mg/kg/injection, schedule: Q01DX009 (sc), vehicle: other 100 % of control and 103 % of control | dose: 65.0 mg/kg/injection, schedule: Q01DX009 (sc), vehicle: other 100 % of control and 103 % of control | dose: 75.0 mg/kg/injection, schedule: Q01DX009 (sc), vehicle: methylcellulose (MC) 90 % of control | dose: 75.0 mg/kg/injection, schedule: Q01DX009 (sc), vehicle: other 92 % of control | dose: 108.0 mg/kg/injection, schedule: Q01DX009 (sc), vehicle: other 94 % of control and 95 % of control | dose: 150.0 mg/kg/injection, schedule: Q01DX009 (sc), vehicle: methylcellulose (MC) 95 % of control | dose: 150.0 mg/kg/injection, schedule: Q01DX009 (sc), vehicle: other 96 % of control | dose: 180.0 mg/kg/injection, schedule: Q01DX009 (sc), vehicle: other 97 % of control and 100 % of control | dose: 300.0 mg/kg/injection, schedule: Q01DX009 (sc), vehicle: other 88 % of control and 91 % of control and 82 % of control | dose: 600.0 mg/kg/injection, schedule: Q01DX009 (sc), vehicle: other 70 % of control

O=c1[nH]c(=S)c2[nH]c(=O)[nH]c2[nH]1
inactive: [1] 100 % of control | [2] 100 % of control

O=C(O)c1ccc([N+](=O)[O-])cc1
inactive: [3] 104 % of control

CC1CCC(NC(=O)N(CCCl)N=O)CC1 (configuration not stated)
active: dose: 5.0 mg/kg/injection, schedule: Q03HX008 (sc), vehicle: saline 322 % of control and 333 % of control | dose: 6.25 mg/kg/injection, schedule: Q04DX008 (sc), vehicle: saline 681 % of control and 690 % of control | dose: 12.5 mg/kg/injection, schedule: Q04DX008 (sc), vehicle: saline 370 % of control and 403 % of control | dose: 50.0 mg/kg/injection, schedule: Q04DX001 (sc), vehicle: saline 215 % of control and 257 % of control | dose: 100.0 mg/kg/injection, schedule: Q04DX001 (sc), vehicle: saline 230 % of control | dose: 400.0 mg/kg/injection, schedule: Q04DX001 (sc), vehicle: saline 150 % of control and 151 % of control
inactive: dose: 12.5 mg/kg/injection, schedule: Q01DX001 (sc), vehicle: saline 120 % of control | dose: 25.0 mg/kg/injection, schedule: Q04DX008 (sc), vehicle: saline 119 % of control and 120 % of control | dose: 50.0 mg/kg/injection, schedule: Q04DX008 (sc), vehicle: saline 104 % of control and 105 % of control | dose: 200.0 mg/kg/injection, schedule: Q04DX001 (sc), vehicle: saline 120 % of control and 121 % of control

CCSc1ncnc2nc[nH]c12
inactive: dose: 38.9 mg/kg/injection, schedule: Q01DX Z (sc), vehicle: methylcellulose (MC) 100 % of control | [4] 100 % of control | [5] 110 % of control | [6] 100 % of control | [7] 110 % of control

Oc1cc(CN(CCCl)CCCl)c(O)cc1CN(CCCl)CCCl
inactive: [1] 100 % of control | [2] 105 % of control | dose: 8.4 mg/kg/injection, schedule: Q01DX Z (sc), vehicle: methylcellulose (MC) 110 % of control | [8] 100 % of control | [3] 105 % of control | [9] 110 % of control | [10] 110 % of control | [5] 120 % of control | [6] 120 % of control

CN(C)c1ccc(/C=C/c2ccc3ccccc3[n+]2C)cc1
inactive: dose: 0.65 mg/kg/injection, schedule: Q01DX Z (sc), vehicle: methylcellulose (MC) 100 % of control | dose: 1.08 mg/kg/injection, schedule: Q01DX Z (sc), vehicle: methylcellulose (MC) 100 % of control | dose: 1.8 mg/kg/injection, schedule: Q01DX Z (sc), vehicle: methylcellulose (MC) 104 % of control | [1] 104 % of control | [2] 104 % of control

ClCCN(CCCl)CCNc1ccnc2cc(Cl)ccc12
inactive: dose: 1.08 mg/kg/injection, schedule: Q01DX Z (sc), vehicle: water 100 % of control | dose: 8.4 mg/kg/injection, schedule: Q01DX Z (sc), vehicle: water 100 % of control | [11] 100 % of control | dose: 39.0 mg/kg/injection, schedule: Q01DX Z (sc), vehicle: water 100 % of control | dose: 65.0 mg/kg/injection, schedule: Q01DX Z (sc), vehicle: olive oil, sesame oil, peanut oil 100 % of control

COc1ccc2[nH]c3c(C)c4ccncc4c(C)c3c2c1
inactive: dose: 39.0 mg/kg/injection, schedule: Q01DX Z (sc), vehicle: saline 100 % of control | dose: 65.0 mg/kg/injection, schedule: Q01DX Z (sc), vehicle: saline 100 % of control | dose: 108.0 mg/kg/injection, schedule: Q01DX Z (sc), vehicle: saline 112 % of control | dose: 180.0 mg/kg/injection, schedule: Q01DX Z (sc), vehicle: saline 116 % of control | dose: 300.0 mg/kg/injection, schedule: Q01DX Z (sc), vehicle: saline 116 % of control

c1ccc(CNc2ncnc3[nH]ncc23)cc1
inactive: dose: 23.3 mg/kg/injection, schedule: Q01DX Z (sc), vehicle: methylcellulose (MC) 115 % of control | [4] 120 % of control | [5] 110 % of control | [6] 110 % of control | [7] 100 % of control | [12] 100 % of control

O=C(Nc1ccc(C(=O)Nc2ccc(C3=NCCN3)cc2)cc1)Nc1ccc(C2=NCCN2)cc1
inactive: [9] 95 % of control | [10] 95 % of control | [5] 100 % of control | [6] 110 % of control

CC[C@@]1(O)C(=O)OCc2c1cc1n(c2=O)Cc2cc3ccccc3nc2-1
inactive: dose: 0.65 mg/kg/injection, schedule: Q01DX Z (sc), vehicle: carboxymethylcellulose (CMC) 100 % of control | dose: 1.08 mg/kg/injection, schedule: Q01DX Z (sc), vehicle: carboxymethylcellulose (CMC) 100 % of control | dose: 1.8 mg/kg/injection, schedule: Q01DX Z (sc), vehicle: carboxymethylcellulose (CMC) 122 % of control | dose: 3.0 mg/kg/injection, schedule: Q01DX Z (sc), vehicle: carboxymethylcellulose (CMC) 118 % of control

CC(CNC(=O)CCOS(C)(=O)=O)NC(=O)CCOS(C)(=O)=O (configuration not stated)
inactive: [5] 105 % of control | [6] 115 % of control | [7] 120 % of control | [12] 120 % of control | dose: 833.0 mg/kg/injection, schedule: Q01DX Z (sc), vehicle: carboxymethylcellulose (CMC) 110 % of control | dose: 833.0 mg/kg/injection, schedule: Q01DX Z (sc), vehicle: methylcellulose (MC) 110 % of control
active: dose: 180.0 mg/kg/injection, schedule: Q01DX Z (sc), vehicle: carboxymethylcellulose (CMC) 175 % of control | dose: 300.0 mg/kg/injection, schedule: Q01DX Z (sc), vehicle: carboxymethylcellulose (CMC) 150 % of control

CC(C)CSc1nc(N)nc2nc[nH]c12
inactive: [8] 100 % of control | [3] 105 % of control | [9] 111 % of control | [10] 111 % of control | [5] 111 % of control | [6] 116 % of control | [7] 111 % of control

C[C@]12CCC(=O)C=C1CC[C@@H]1[C@@H]2[C@@H](O)C[C@@]2(C)[C@H]1CC[C@]2(O)C(=O)CO
inactive: [10] 100 % of control | [5] 100 % of control | [6] 100 % of control | [7] 100 % of control | [12] 100 % of control

O=C(NP(=O)(N1CC1)N1CC1)OCc1ccccc1
inactive: dose: 3.0 mg/kg/injection, schedule: Q01DX Z (sc), vehicle: water 111 % of control | dose: 14.0 mg/kg/injection, schedule: Q01DX Z (sc), vehicle: water 111 % of control | [11] 111 % of control

C1OC1CN1CCC(C2CCN(CC3CO3)CC2)CC1 (configuration not stated)
inactive: [2] 109 % of control | [8] 109 % of control | [3] 104 % of control | dose: 65.0 mg/kg/injection, schedule: Q03DX Z (sc), vehicle: methylcellulose (MC) 109 % of control | [5] 118 % of control | dose: 180.0 mg/kg/injection, schedule: Q03DX Z (sc), vehicle: methylcellulose (MC) 118 % of control
